Assay results as given in paper PMC2649372 (Biochemistry, 2008).
Substitutions are numbered along the chain they refer to. Marks after values point to notes of the source that are not given here.

Columns and labels:
Test in all cases: Agonist-induced currents, voltage clamp electrophysiology in Xenopus oocytes
Type in all cases: cell-based
[1] = target: T1, E129H mutant 5-HT3 receptor (mouse 5-HT3A subunit) (Mus musculus, UniProt P23979, E129H)
T1 sequence (P23979 24-483 isoform P23979-2 E129H limits assumed): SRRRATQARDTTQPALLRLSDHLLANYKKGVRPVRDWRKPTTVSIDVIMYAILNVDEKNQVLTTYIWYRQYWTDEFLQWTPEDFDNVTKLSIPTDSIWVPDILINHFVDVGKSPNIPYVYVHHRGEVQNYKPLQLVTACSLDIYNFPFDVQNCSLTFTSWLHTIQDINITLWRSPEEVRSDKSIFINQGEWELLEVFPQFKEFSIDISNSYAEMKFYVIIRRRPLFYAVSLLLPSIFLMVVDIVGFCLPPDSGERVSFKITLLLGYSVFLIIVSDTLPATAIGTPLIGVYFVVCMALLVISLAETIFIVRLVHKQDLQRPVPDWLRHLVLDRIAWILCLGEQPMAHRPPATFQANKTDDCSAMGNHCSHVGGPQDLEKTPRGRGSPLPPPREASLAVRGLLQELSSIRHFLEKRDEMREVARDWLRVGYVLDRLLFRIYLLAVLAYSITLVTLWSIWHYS

[2] = target: T2, E129N mutant 5-HT3 receptor (mouse 5-HT3A subunit) (Mus musculus, UniProt P23979, E129N); details: E129N
T2 sequence (P23979 24-483 isoform P23979-2 E129N limits assumed): T1 sequence (P23979 24-483 isoform P23979-2 E129H limits assumed) with H106N

[3] = target: T3, N128K mutant 5-HT3 receptor (mouse 5-HT3A subunit) (Mus musculus, UniProt P23979, N128K)
T3 sequence (P23979 24-489 N128K): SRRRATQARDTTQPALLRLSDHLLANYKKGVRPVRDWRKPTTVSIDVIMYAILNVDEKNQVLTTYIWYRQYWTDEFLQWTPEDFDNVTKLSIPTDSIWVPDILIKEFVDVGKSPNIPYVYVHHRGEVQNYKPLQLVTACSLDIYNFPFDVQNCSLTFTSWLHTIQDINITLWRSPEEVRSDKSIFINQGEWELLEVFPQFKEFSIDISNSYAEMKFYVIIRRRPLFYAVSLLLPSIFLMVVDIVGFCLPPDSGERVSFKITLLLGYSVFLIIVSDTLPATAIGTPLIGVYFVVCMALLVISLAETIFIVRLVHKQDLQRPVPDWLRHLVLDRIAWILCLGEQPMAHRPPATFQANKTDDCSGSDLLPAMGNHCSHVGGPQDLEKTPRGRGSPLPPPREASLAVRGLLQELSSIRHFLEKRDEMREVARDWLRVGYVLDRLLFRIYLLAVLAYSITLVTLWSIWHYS

[4] = target: T4, N128D mutant 5-HT3 receptor (mouse 5-HT3A subunit) (Mus musculus, UniProt P23979, N128D); details: N128D
T4 sequence (P23979 24-483 isoform P23979-2 N128D limits assumed): T1 sequence (P23979 24-483 isoform P23979-2 E129H limits assumed) with N105D, H106E

[5] = target: T5, N128V mutant 5-HT3 receptor (mouse 5-HT3A subunit) (Mus musculus, UniProt P23979, N128V)
T5 sequence (P23979 24-483 isoform P23979-2 N128V limits assumed): T1 sequence (P23979 24-483 isoform P23979-2 E129H limits assumed) with N105V, H106E

Row | Compound | nH (Hill coefficient) [1] | size of agonist response (current) [2] | nH (Hill coefficient) [3] | nH (Hill coefficient) [4] | nH (Hill coefficient) [5] | EC50 [1] | pEC50 [1] | EC50 [2] | nH (Hill coefficient) [2] | pEC50 ([2]; SR = small (<100 nA) responses) | EC50 [3] | pEC50 [3] | EC50 [4] | pEC50 ([4]; SR = small (<100 nA) responses) | EC50 [5] | pEC50 [5]
1 | NCCc1c[nH]c2ccc(O)cc12 [5-HT, 5-hydroxytryptamine] | 1.07 ± 0.24 ^b | > 5 µA | 2.13 ± 0.38 | 1.63 ± 0.08 ^b | 3.18 ± 0.60 | – | – | – | – | – | – | – | – | – | – | –
2 | N=C(N)NC(=N)Nc1cccc(Cl)c1 [mCPBG, m-chlorophenylbiguanide] | 1.63 ± 0.20 | > 5 µA | 1.43 ± 0.16 | 1.54 ± 0.15 | 5.07 ± 0.85 ^b | 370 nM | 6.43 ± 0.04 | 620 nM | 1.25 ± 0.19 | 6.21 ± 0.05 | 3900 nM | 5.41 ± 0.03 ^b | 270 nM | 6.56 ± 0.03 | 74 nM | 7.13 ± 0.02 ^b
